Data reported in US11053216B2, “Compounds and methods of use” (Medivation Technologies LLC, priority 2014, dated 2021).

How the values were obtained:
[1] = Pharmacokinetics and bioavailability in male mice after a single dose; assay type: in vivo
[2] = Plasma and brain concentrations at 0.5 and 1 h; assay type: in vivo, mice
[3] = biological target: ALK3 (BMPR1A) (Homo sapiens (Human), UniProt P36894); assay: In vitro kinase assay (33P ATP, 10 μM ATP); assay type: biochemical; conditions: read-out: Inhibition of ALK3 (IC50 μM)
ALK3 (BMPR1A), sequence (P36894 24-532): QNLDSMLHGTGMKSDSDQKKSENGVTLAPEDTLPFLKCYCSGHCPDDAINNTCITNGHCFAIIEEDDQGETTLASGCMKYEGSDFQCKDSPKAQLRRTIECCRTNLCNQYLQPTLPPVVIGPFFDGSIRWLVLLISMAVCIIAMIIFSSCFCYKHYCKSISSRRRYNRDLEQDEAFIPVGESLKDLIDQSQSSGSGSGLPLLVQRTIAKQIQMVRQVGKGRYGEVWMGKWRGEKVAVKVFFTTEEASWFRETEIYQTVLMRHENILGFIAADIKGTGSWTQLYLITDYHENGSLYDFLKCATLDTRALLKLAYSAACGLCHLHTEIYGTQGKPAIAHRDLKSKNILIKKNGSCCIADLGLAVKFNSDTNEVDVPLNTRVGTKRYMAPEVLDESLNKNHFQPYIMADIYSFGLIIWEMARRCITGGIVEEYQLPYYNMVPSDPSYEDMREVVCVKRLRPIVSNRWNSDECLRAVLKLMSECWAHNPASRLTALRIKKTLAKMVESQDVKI

Row | Cmax ([1]; oral, 10 mg/kg) [µM] | Brain concentration ([2]; IV 2 mg/kg, 0.5 h) [ng/mL] | Plasma concentration ([2]; IV 2 mg/kg, 0.5 h) [ng/mL] | Brain concentration ([2]; IV 2 mg/kg, 1 h) [ng/mL] | Plasma concentration ([2]; IV 2 mg/kg, 1 h) [ng/mL] | Brain concentration ([2]; PO 10 mg/kg, 0.5 h) [ng/mL] | Plasma concentration ([2]; PO 10 mg/kg, 0.5 h) [ng/mL] | Brain concentration ([2]; PO 10 mg/kg, 1 h) [ng/mL] | Plasma concentration ([2]; PO 10 mg/kg, 1 h) [ng/mL] | Structure (SMILES) | other results
1 | 3.48 | – | – | – | – | – | – | – | – | CCc1cnc(-c2cc(Cl)ccc2F)cc1Nc1ccncc1C(=O)NC[C@H](C)O (single isomer, unassigned) [11a] | –
2 | – | – | – | – | – | – | – | – | – | CC(C)c1cnc(-c2cc(Cl)ccc2F)cc1Nc1ncncc1C(=O)NC[C@H](C)O (single isomer, unassigned) [12a] | Cmax ([1]; mouse, plasma, intravenous, 2 mg/kg): 7.15 µM
3 | – | 73.2 | 310 | 82.4 | 366 | 202 | 1570 | 114 | 905 | CC(C)c1cnc(-c2cc(Cl)ccc2F)cc1Nc1ccncc1C(=O)NC[C@H](C)O [2a, (S)-4-[[2-(5-chloro-2-fluoro-phenyl)-5-isopropyl-4-pyridyl]amino]-N-(2-hydroxypropyl)pyridine-3-carboxamide] | –
4 | – | 173 | 432 | 168 | 365 | 305 | 1280 | 406 | 1250 | C=C(C)c1cnc(-c2cc(Cl)ccc2F)cc1Nc1ccncc1C(=O)NC[C@H](C)O [3a, (S)-4-(2-(5-chloro-2-fluorophenyl)-5-(prop-1-en-2-yl)pyridin-4-ylamino)-N-(2-hydroxypropyl)pyridine-5-carboxamide] | –
5 | 3.42 | – | – | – | – | – | – | – | – | C[C@H](O)CNC(=O)c1cnccc1Nc1cc(-c2cc(Cl)ccc2F)ncc1N(C)C [16a, (S)-4-(2-(5-chloro-2-fluorophenyl)-5-(dimethylamino)pyridin-4-ylamino)-N-(2-hydroxypropyl)nicotinamide] | –
6 | – | – | – | – | – | – | – | – | – | Fc1ccc(Cl)cc1-c1cc(Nc2ccnc3[nH]ccc23)c(C2CC2)cn1 [compound 32, 2-(5-chloro-2-fluorophenyl)-5-cyclopropyl-N-{1H-pyrrolo[2,3-b]pyridin-4-yl}pyridin-4-amine] | IC50 [3]: 333 µM
